Results published in patent US5962314A, “Calcium receptor-active molecules” (priority 1997, dated 1999).
Entries after “also recorded” stand apart in the source; their conditions may differ.

Key:
serum ionized calcium [1] = experiment: serum ionized Ca2+ in parathyroidectomized rats; assay type: in vivo, rat; conditions: NPS R-467 10 mg/kg i.p., 6 hours; NPS R-568 oral
Excerpt: To determine the primary target tissue upon which NPS R-467 acts to cause a hypocalcemic response, the parathyroid glands in rats were surgically removed. Animals receiving a total parathyroidectomy become hypocalcemic and are largely dependent upon dietary calcium to maintain serum Ca^2+ homeostasis.

serum ionized calcium [2] = experiment: serum ionized Ca2+ in rats; assay type: in vivo, rat; conditions: NPS R-467 single oral dose, 3 hours
Protocol: Compounds shown to activate the bovine parathyroid cell calcium receptor in vitro were tested for hypocalcemic activity in vivo. Male Sprague-Dawley rats (200 g) were maintained on a low calcium diet for one week prior to receiving test substance or vehicle as control. Blood was collected from the tail vein three hours after the intra-peritoneal administration of NPS 467. […] Serum total calcium, albumin and phosphate were measured by techniques well known in the art.
Rats (male, Sprague-Dawley, 250-300 g) were fed standard rat chow and fasted overnight prior to the experiment. NPS R-467 was suspended in corn oil and administered as a single oral dose through a gavage needle. Three hours later a sample of blood was taken from the tail vein and assessed for ionized Ca^2+ levels.

[3] = tested on: human parathyroid calcium receptor; experiment: intracellular calcium in HEK293 cells stably transfected with human calcium receptor; assay type: cell-based; conditions: Ca2+ 10 mM; Mg2+ 20 mM; HuPCaR 5.2
Protocol: Different cells were tested for response to pure stereoisomers and racemic mixtures. […] Intracellular Ca^2+ was monitored using a fluorimeter. Each point on the graph represents the peak response (highest concentration of intracellular calcium achieved) to the addition of the indicated concentration of the indicated compound.
Cells obtained from the pool of hygromycin selected HEK293 cells transfected with Cep4B containing the HuPCaR 5.2 insert were plated on collagen coated Aklar squares which had been placed into individual wells of 12-well tissue culture plates. Two to six days later, medium was removed and the cells washed with balanced salt solution and 1 ml of buffer containing 1 μM fura2-AM, 1 mM CaCl2 and 0.1% BSA and 1 mM CaCl2. Measurements of fluorescence in response to calcium receptor agonists were performed at 37° C. in a spectrofluorimeter using excitation and emission wavelengths of 340 and 510 nm, respectively. For signal calibration, Fmax was determined after addition of ionomycin (40 μM) and the apparent Fmin was determined by addition of 0.3 M EGTA, 2.5 M Tris-HCl; pH 10.
Additional clonal isolates of HEK 293 cells transfected with pHuPCaR4.0 sequence were obtained. These were tested for responsiveness to calcimimetics as described above except that the cells were tested while in suspension. Similar positive results were obtained (FIG. 28b).

[4] = biological target: T1, human parathyroid cell calcium receptor (Homo sapiens, UniProt P41180); experiment: Cl- current in Xenopus oocytes expressing human parathyroid cell calcium receptor; assay type: cell-based
T1 construct: T7 cRNA injected into Xenopus oocytes
T1 sequence (P41180 with tags, fused parts or gaps INS536PLTFVLSVLQ/Q926R/E1011Q): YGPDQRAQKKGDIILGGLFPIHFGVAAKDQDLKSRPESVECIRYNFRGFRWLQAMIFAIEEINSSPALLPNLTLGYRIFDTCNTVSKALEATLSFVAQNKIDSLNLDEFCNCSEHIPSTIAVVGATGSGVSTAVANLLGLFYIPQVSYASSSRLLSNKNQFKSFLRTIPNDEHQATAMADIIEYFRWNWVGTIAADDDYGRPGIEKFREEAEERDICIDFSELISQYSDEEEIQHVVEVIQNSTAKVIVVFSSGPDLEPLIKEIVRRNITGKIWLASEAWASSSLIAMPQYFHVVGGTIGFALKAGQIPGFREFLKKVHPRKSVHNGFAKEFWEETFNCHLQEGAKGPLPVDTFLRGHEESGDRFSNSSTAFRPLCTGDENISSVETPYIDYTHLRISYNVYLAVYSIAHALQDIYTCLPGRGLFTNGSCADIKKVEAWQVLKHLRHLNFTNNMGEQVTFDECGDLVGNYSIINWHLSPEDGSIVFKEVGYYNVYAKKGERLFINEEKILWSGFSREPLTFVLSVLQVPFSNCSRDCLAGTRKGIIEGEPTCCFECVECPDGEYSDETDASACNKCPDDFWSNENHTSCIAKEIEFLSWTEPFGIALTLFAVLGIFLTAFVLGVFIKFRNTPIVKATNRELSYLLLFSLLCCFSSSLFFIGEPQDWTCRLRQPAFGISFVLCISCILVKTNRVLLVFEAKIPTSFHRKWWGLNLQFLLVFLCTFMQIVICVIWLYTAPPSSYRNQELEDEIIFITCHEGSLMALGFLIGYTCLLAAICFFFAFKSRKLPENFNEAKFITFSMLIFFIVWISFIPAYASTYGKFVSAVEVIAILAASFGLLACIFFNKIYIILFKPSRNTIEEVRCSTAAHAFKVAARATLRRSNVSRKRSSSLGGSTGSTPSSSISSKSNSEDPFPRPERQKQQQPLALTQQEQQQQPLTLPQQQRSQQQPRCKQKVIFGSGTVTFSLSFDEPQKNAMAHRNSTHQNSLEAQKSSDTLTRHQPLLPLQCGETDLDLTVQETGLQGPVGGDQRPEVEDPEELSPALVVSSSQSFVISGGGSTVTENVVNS
Protocol: Representative cDNA inserts for both size classes were subcloned into the plasmid vector pBluescript SK. Linearization followed by in vitro transcription using T7 RNA polymerase produced cRNA transcripts. The cRNA transcripts were injected into Xenopus oocytes (150 ng/μl RNA; 50 nl/oocyte) for functional analysis. Following incubation periods of 2-4 days, the oocytes were assayed for the presence of functional calcium receptors. Both clone types gave rise to functional calcium receptors as assessed by the stimulation of calcium-activated chloride currents upon addition of appropriate calcium receptor agonists. […] Thus, both clones encode a functional, human parathyroid cell calcium receptor.
Xenopus oocytes were injected with pHuPCaR 5.2, the 5.2 Kb cDNA encoding a parathyroid cell calcium receptor derived from a human parathyroid cell adenoma. (See Example 27.) After two to three days, Cl^- currents were measured in the oocytes using a two-electrode voltage clamp.

[5] = tested on: parathyroid cell calcium receptor; experiment: Cl- current in Xenopus oocytes injected with bovine parathyroid cell mRNA; assay type: cell-based; conditions: 30 μM; oocytes injected with parathyroid cell mRNA
Protocol: Following incubation, an oocyte was placed into a 100-μl plastic chamber and superfused with MBS at a flow rate of 0.5 ml/min using a peristaltic pump. Test molecules or inorganic polycations were added by rapidly moving the tubing into different buffers. Recording and current-passing electrodes were constructed from thin-wall capillary tubing pulled to a resistance of 1-3 Mohms and filled with 3 M KCl. […] Currents were recorded directly onto a strip chart recorder.

C-cell calcium receptor = biological target: T2, C-cell calcium receptor (Rattus norvegicus, UniProt P48442); assay type: cell-based; conditions: Table 6; rMTC 6-23 cells, fura-2
T2 construct: Neoplastic C-cells derived from a rat medullary thyroid carcinoma (rMTC 6-23); host or cells: rMTC 6-23 cells
T2 sequence (P48442 20-1079): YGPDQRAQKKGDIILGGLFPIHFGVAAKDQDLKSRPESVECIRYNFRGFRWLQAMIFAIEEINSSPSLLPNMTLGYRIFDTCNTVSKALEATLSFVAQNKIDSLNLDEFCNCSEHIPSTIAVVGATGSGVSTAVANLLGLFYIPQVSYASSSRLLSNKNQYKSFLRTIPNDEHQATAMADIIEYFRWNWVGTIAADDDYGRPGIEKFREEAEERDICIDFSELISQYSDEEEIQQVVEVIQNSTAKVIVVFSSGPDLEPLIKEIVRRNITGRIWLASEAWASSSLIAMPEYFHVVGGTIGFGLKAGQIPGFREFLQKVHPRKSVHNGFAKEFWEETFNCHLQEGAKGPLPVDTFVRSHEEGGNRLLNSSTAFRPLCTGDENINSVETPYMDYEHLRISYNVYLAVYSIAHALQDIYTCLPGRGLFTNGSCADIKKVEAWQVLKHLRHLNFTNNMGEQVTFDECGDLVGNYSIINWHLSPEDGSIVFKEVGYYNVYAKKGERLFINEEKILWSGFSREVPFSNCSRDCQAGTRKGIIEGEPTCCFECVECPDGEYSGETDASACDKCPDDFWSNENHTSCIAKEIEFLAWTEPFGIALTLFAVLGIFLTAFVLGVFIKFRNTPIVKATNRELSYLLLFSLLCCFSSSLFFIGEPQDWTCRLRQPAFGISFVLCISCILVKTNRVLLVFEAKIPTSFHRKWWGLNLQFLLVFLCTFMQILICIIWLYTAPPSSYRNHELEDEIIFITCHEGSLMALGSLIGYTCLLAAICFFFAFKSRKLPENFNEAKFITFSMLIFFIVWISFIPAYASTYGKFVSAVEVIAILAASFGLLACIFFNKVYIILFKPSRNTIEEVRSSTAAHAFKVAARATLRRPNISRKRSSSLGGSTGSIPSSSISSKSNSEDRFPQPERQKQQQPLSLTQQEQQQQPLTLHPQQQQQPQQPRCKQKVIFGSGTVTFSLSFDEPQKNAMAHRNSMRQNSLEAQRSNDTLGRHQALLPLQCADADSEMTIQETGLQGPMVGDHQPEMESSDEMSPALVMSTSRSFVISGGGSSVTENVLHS
Excerpt: To assess the effects of molecular polycations on C-cells, a neoplastic cell line, derived from a rat medullary thyroid carcinoma (rMTC 6-23 cells) was used.

## COc1cccc([C@@H](C)NCCCc2ccccc2)c1 [NPS R-467, (R)-(+)-N-(3-phenylpropyl)-α-methyl-3-methoxybenzylamine]
Serum ionized calcium [1]
  effect on serum ionized Ca2+ in parathyroidectomized rats: did not cause any change in serum ionized Ca^2+
Serum ionized calcium [2]
  effect on serum ionized Ca2+, oral: lowers serum ionized calcium; also recorded: dose-dependent reduction in serum levels of ionized Ca^2+
[3]
  increase in intracellular calcium: Robust increases in intracellular calcium
[4]
  activation of oocyte-expressed receptor: activated the oocyte-expressed receptor at about the same concentrations
[5]
  effect on Cl- current: rapid increase in Cl^-
C-cell calcium receptor
  EC50: 2.2 µM
